In PubChem BioAssay (NCI):
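48-hour exposure; five concentrations; linearly interpolated endpoints. GI50: concentration for 50% inhibition of growth. TGI marks complete inhibition of growth.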

Assays:
Experiment in all cases: DTP human tumour cell line panel, 48 h
CAKI-1 renal = system: CAKI-1 renal
KM12 colon = system: KM12 colon
M14 melanoma = system: M14 melanoma
SF-539 CNS = system: SF-539 CNS
SK-MEL-2 melanoma = system: SK-MEL-2 melanoma
SK-MEL-5 melanoma = system: SK-MEL-5 melanoma
SNB-75 CNS = system: SNB-75 CNS
UACC-257 melanoma = system: UACC-257 melanoma
UACC-62 melanoma = system: UACC-62 melanoma
HCT-15 colon = system: HCT-15 colon

SMILES	GI50 (CAKI-1 renal) [µM]	TGI (CAKI-1 renal) [µM]	GI50 (KM12 colon) [µM]	TGI (KM12 colon) [µM]	GI50 (M14 melanoma) [µM]	TGI (M14 melanoma) [µM]	GI50 (SF-539 CNS) [µM]	TGI (SF-539 CNS) [µM]	GI50 (SK-MEL-2 melanoma) [µM]	TGI (SK-MEL-2 melanoma) [µM]	GI50 (SK-MEL-5 melanoma) [µM]	TGI (SK-MEL-5 melanoma) [µM]	GI50 (SNB-75 CNS) [µM]	TGI (SNB-75 CNS) [µM]	GI50 (UACC-257 melanoma) [µM]	TGI (UACC-257 melanoma) [µM]	GI50 (UACC-62 melanoma) [µM]	TGI (UACC-62 melanoma) [µM]	GI50 (HCT-15 colon) [µM]	TGI (HCT-15 colon) [µM]
COc1cc2c(c(OC)c1OC)C(=O)c1c-2n(CCCN)c(=O)c2cc([N+](=O)[O-])ccc12	0.535	2.24	0.161	0.369	1.35	2.82	0.55	1.16	5.45	11.6	1.53	3.24	1.41	3.31	5.18	12.2	9.16	24.2	–	–
CCOc1ccc2c(-c3ccnc(Nc4cccc(C(F)(F)F)c4)n3)cnn2n1	> 14.7	> 25	5.07	14	> 25	> 25	4.92	9.63	–	–	> 25	> 25	9.81	> 25	> 25	> 25	11.5	> 25	> 23.8	> 25
NC(CCc1nc(-c2ccccc2)cs1)C(=O)O (configuration not stated)	–	> 100	–	> 100	–	> 100	–	> 100	–	–	–	> 100	–	> 100	–	> 100	–	> 100	–	> 100
CN1NC(c2ccccc2)=C(C#N)C(=O)CC1c1ccccc1Cl (configuration not stated)	–	> 100	–	> 100	–	> 100	–	–	–	> 100	–	> 100	–	> 100	–	> 100	–	–	–	> 100
C=C(C)[C@@H]1CC[C@]2(C)[C@H](CC=C3[C@@H]4CC(C)(C)CC[C@]4(C(=O)OC)CC[C@]32C)[C@@]1(C)CC/C(N)=N/O	2.4	15.1	1.68	3.6	1.78	3.86	1.8	3.95	1.78	3.95	1.77	3.23	–	–	2.01	5.34	1.52	3.11	2.05	5.6
C#Cc1cccc(N2C(=O)CC(=P(c3ccccc3)(c3ccccc3)c3ccccc3)C2=O)c1	–	> 100	–	–	–	> 100	–	–	–	> 100	–	83.7	–	> 100	–	> 100	–	> 100	–	–
O=c1cc(-c2ccccc2)oc2cc(OCc3cn(Cc4ccc(F)cc4)nn3)cc(O)c12	5.76	> 100	> 100	> 100	> 100	> 100	5.17	> 100	6.8	36.1	> 100	> 100	3.74	28	> 100	> 100	–	–	–	–
CCCC(=O)C(CC)/C(CCC(=O)N(Cc1ccccc1)Cc1ccccc1)=N/NC(=O)C[N+](C)(C)C (configuration not stated)	–	> 100	–	> 100	–	> 100	–	> 100	–	> 100	–	> 100	–	> 100	–	> 100	–	–	–	–
COc1ccc2c(CCNS(=O)(=O)c3ccccc3)c(C(C)=O)[nH]c2c1[N+](=O)[O-]	–	–	–	> 100	–	> 100	–	77.7	–	> 100	–	–	–	–	–	> 100	–	> 100	–	> 100
COC(=O)/C1=C/C2CC(/C=C(/c3ccccc3)C(=O)O1)C2	–	–	–	62	–	> 100	–	89.8	–	–	–	47	–	35.4	–	23.2	–	67.4	–	53.1
CCC(=O)[O-].CCC(=O)[O-].N.N.N.N.[Co+3].[O-][Cl+3]([O-])([O-])[O-]	–	–	> 100	> 100	> 100	> 100	> 100	> 100	> 100	> 100	> 100	> 100	> 100	> 100	> 100	> 100	> 100	> 100	> 100	> 100
COc1ccc2c3c([nH]c2c1[N+](=O)[O-])C(C)N(C(=O)/C=C/c1ccccc1)CC3 (configuration not stated)	–	> 100	–	> 100	–	> 100	–	23.2	–	> 100	–	–	–	–	–	> 100	–	9.06	–	> 100
CN1C(=O)NC2(O)c3ccccc3C(=O)C12O (configuration not stated)	–	> 100	–	> 100	–	> 100	–	–	–	> 100	–	–	–	> 100	–	> 100	–	> 100	–	> 100
COc1ncnc2c1ncn2C/C(Br)=C(\Br)CCl	1.87	3.87	3.54	13.4	1.82	4.14	2.17	7.61	–	–	2.19	5.59	2.01	8.57	0.775	3.9	2.65	12	1.84	4.16
CC(=O)OC1CC(C)c2c1ncnc2N1CCN(C(=O)OC(C)(C)C)CC1 (configuration not stated)	63.8	> 100	38.1	> 100	30.4	> 100	30.8	> 100	35.5	93.1	37.8	> 100	25.2	> 100	–	–	46.4	> 100	55.3	> 100
c1ccc2c(c1)[Se]c1ccccc1[Se]2	–	> 100	–	> 100	–	> 100	–	> 100	–	> 100	–	> 100	–	64.9	–	> 100	–	> 100	–	–
CC(=O)c1ccc(NCn2nc(-c3ccccc3O)oc2=S)cc1	> 100	> 100	> 100	> 100	> 100	> 100	–	–	> 100	> 100	55.6	> 100	–	–	> 100	> 100	35.8	> 100	23.4	49.3
